Data reported in patent US20060100140A1, “Combination of a) n-{5-[4-(4-methyl-piperazino-methyl)-benzoylamido]2-methylphenyl}-4- (3-pyridyl)-2-pyrimidine-amine and b) a histone deacetylase inhibitor for the treatment of leukemia” (priority 2002, published 2006).

What was measured:
Type in all cases: cell-based, human
[1] = test system: Compound I-resistant LAMA 84 cells (LAMA 84R); experiment: Apoptosis by Wright Giemsa-stained cytospin slides in resistant cells; settings: Table 7, 24 hr, Compound I (1.0 or 1.25 μM), SAHA (1.0 or 2.0)
Method: For studies involving the LAMA 84-R line, cells are washed free of drug and resuspended in drug-free medium 48 h before experimentation.
(§1) Assessment of Apoptosis: After drug exposures, cytocentrifuge preparations are stained with Wright-Giemsa and viewed by light microscopy to evaluate the extent of apoptosis (i.e., cell shrinkage, nuclear condensation, formation of apoptotic bodies, etc.) as described previously (Yu et al., Nat. Rev. Cancer 1:294-202). For these studies, the percentage of apoptotic cells is determined by evaluating ≧500 cells/condition in triplicate. To confirm the results of morphological analysis, Annexin V/PI staining is used. Annexin V/PI (BD PharMingen, San Diego, Calif.) analysis of cell death is carried out as per the manufacturer's instructions. In studies involving TNF and TNF soluble receptor, both compound are combined and maintained at room temperature 20 min prior to use. For these experiments 1-2×10^5 cells per condition are harvested. Analysis is carried out using a Becton-Dickinson FACScan cytofluorometer (Mansfield, Mass.). […] The slides are treated with acetic acid/ethanol (1:2), stained with terminal transferase reaction mixture containing 1× terminal transferase reaction buffer (0.25 units/μl terminal transferase, 2.5 mM CoCl2, and 2 pmol fluorescein-12-dUTM; Boehringer Mannheim, Indianapolis, Ind.), and visualized using fluorescence microscopy.

Raf = experiment: Western analysis of Raf expression in K562 cells; settings: 2.0 μM SAHA ± 250 nM Compound I, 16 hr
Method: Immunoblot Analysis: Immunoblotting is performed as described previously (Yu et al., Nat. Rev. Cancer 1:294-202). In brief, after drug treatment cells are pelleted by centrifugation, and lysed immediately in Laemmli buffer [1×=30 mM Tris-base (pH 6.8), 2% SDS, […] β-mercaptoethanol, and 10% glycerol], and briefly sonicated. Homogenates are quantified using Coomassie protein assay reagent (Pierce, Rockford, Ill.). Equal amounts of protein (20 μg) are boiled for 10 min, separated by SDS-PAGE (5% stacker and 10% resolving), and electroblotted to nitrocellulose membrane. After blocking in TBS-T (0.05%) and 5% milk for 1 h at 22° C., the blots are incubated in fresh blocking solution with an appropriate dilution of primary antibody for 4 h at 22° C. […]
K562 cells are treated as above, and monitored for expression of Bcl-xL, Mcl-1, and XIAP. […]

[2] = test system: K562 cells transfected with GFP alone; experiment: Apoptosis in sorted transiently transfected cells; settings: Table 8, 2.0 μM SAHA ± 250 nM Compound I for 24 hr
Method: as §1, with “instructions.” for “instructions. In studies involving TNF and TNF soluble receptor, both compound are combined and maintained at room temperature 20 min prior to use. For these experiments 1-2×10^5 cells per condition are harvested. Analysis is carried out using a Becton-Dickinson FACScan cytofluorometer (Mansfield, Mass.).”
(§2) Transient transfections: Plasmids encoding enhanced green fluorescence protein under the transciptional control of the human cytomegalovirus (CMV) immediate-early promoter (pEGFP-C2), and HA-tagged activated MEK1 (S218D/S222D in pUSEEamp) are obtained from Clontech Laboratories (Palo Alto, Calif.) and Upstate Biotechnology (Lake Placid, N.Y.), respectively.

[3] = test system: K562 cells transfected with GFP/constitutively active MEK1/2 fusion cDNA; experiment: Apoptosis in sorted transiently transfected cells; settings: Table 8; GFP/MEK; 2.0 μM SAHA ± 250 nM Compound I for 24 hr
Method: as §1, with “instructions.” for “instructions. In studies involving TNF and TNF soluble receptor, both compound are combined and maintained at room temperature 20 min prior to use. For these experiments 1-2×10^5 cells per condition are harvested. Analysis is carried out using a Becton-Dickinson FACScan cytofluorometer (Mansfield, Mass.).”
as §2

K562 cells = experiment: Clonogenic survival in soft agar; settings: 2.0 μM SAHA ± 250 nM Compound I for 24 hr, washed, 12-day incubation
Method: Analysis of erythroid maturation of K562 cells is performed by monitoring the production of hemoglobin as previously described (Yang et al., J. Biol. Chem. 2001, 276:25742-52). Clonogenic Survival: Effects of drug treatment on the clonogenic survival of leukemia cells is determined using a previously described clonogenic assay (Yu et al., Mol. Pharmacol. 2001, 60: 143-54).

LAMA 84 cells = experiment: Annexin V/PI flow cytometry of cell death; settings: 200 nM Compound I ± 1.0 μM SAHA for 24 hr
Method: For these studies, the percentage of apoptotic cells is determined by evaluating ≧500 cells/condition in triplicate. To confirm the results of morphological analysis, Annexin V/PI staining is used. Annexin V/PI (BD PharMingen, San Diego, Calif.) analysis of cell death is carried out as per the manufacturer's instructions. In studies involving TNF and TNF soluble receptor, both compound are combined and maintained at room temperature 20 min prior to use. For these experiments 1-2×10^5 cells per condition are harvested. Analysis is carried out using a Becton-Dickinson FACScan cytofluorometer (Mansfield, Mass.). To further confirm the morphology results, TUNEL staining is used. For TUNEL staining, cytocentrifuge preparations are obtained and fixed with 4% formaldehyde. The slides are treated with acetic acid/ethanol (1:2), stained with terminal transferase reaction mixture containing 1× terminal transferase reaction buffer (0.25 units/μl terminal transferase, 2.5 mM CoCl2, and 2 pmol fluorescein-12-dUTM; Boehringer Mannheim, Indianapolis, Ind.), and visualized using fluorescence microscopy.

SMILES	Compound I + SAHA % of apoptotic cells [1] [%]	expression of Raf (Raf)	apoptosis [2] [%]	apoptosis [3] [%]	Clonogenic survival (% control) (K562 cells)	% Annexin V/PI (LAMA 84 cells) [%]
Cc1ccc(NC(=O)c2ccc(CN3CCN(C)CC3)cc2)cc1Nc1nccc(-c2cccnc2)n1 [Compound I, N-{5-[4-(4-methyl-piperazino-methyl)-benzoylamido]-2-methylphenyl}-4-(3-pyridyl)-2-pyrimidine-amine]	14.8 ± 4.7	little effect				
O=C(CCCCCCC(=O)Nc1ccccc1)NO [SAHA, suberoylanilide hydroxamic acid]	10.3 ± 3.4	clear reduction	22.5 ± 2.6	19.8 ± 2.1	21.8 ± 3.6	15.2 ± 2.4
